Source: US8580773B2, “Small-molecule inhibitors of the androgen receptor” (The Regents of the University of California, priority 2008, dated 2013)
Where a chain is given by its changes, count along the chain named. “Also recorded” adds a separate entry of the source. Counter-ions that a name gives are not always drawn. Values belong to the compound of their own block, whether it stands above or below them.

Legend:
prostate [1] = test: Prostate weight in mice after four weeks of treatment; assay type: in vivo; conditions: male mice, 5 times per week for four weeks; BiC 100 mg/kg PO, PP 1 mg/kg IP, or the combination
Procedure: Animals were treated 5 times per week for four weeks. At the end of the study period, animals were sacrificed and prostate tissue weighed. After weighing, the tissue was divided in half for pathological and genetic studies. […] (FIG. 7).

human androgen receptor = biological target: T1, human androgen receptor (Homo sapiens, UniProt P10275); test: Screen of 1040 FDA-approved drugs and natural products for AR antagonists (MMTV-luciferase transcription assay and C-AR-Y FRET conformation assays); assay type: cell-based; conditions: test compounds at 10 μM, 10 nM DHT, 24 hours; validated by dose-response
T1 construct: expressed in transfected cells; host or cells: HEK293 and LAPC4 stably expressing C-AR-Y; HEK293 transiently transfected with native AR
T1 sequence (P10275 1-920): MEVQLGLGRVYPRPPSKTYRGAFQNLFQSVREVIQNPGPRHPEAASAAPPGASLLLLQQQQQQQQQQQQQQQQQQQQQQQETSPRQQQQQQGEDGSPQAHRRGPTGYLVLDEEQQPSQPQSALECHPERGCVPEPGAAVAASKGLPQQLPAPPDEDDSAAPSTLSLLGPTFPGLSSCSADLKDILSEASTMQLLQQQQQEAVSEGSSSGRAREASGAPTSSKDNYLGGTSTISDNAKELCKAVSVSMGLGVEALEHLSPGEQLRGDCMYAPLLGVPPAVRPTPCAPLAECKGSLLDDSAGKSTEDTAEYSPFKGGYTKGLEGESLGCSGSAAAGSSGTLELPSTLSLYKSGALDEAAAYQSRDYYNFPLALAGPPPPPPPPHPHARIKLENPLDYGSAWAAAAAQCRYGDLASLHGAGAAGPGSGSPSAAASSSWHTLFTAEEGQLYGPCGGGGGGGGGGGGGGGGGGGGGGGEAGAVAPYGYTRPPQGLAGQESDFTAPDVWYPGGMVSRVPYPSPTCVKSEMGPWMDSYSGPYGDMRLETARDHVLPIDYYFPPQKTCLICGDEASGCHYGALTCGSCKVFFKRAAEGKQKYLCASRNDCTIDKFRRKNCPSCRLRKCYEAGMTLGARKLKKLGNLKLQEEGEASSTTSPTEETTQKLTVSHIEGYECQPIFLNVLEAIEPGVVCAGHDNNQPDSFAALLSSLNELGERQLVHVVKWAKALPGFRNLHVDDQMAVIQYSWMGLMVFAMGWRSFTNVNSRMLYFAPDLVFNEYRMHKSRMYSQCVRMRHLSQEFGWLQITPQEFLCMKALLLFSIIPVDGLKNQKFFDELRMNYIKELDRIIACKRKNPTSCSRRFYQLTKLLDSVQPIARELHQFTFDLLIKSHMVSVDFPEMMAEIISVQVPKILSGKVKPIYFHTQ
Procedure: A library assembled by the NINDS was screened. The library consisted of 1040 FDA-approved drugs and natural products. A basic strategy to select and compare compounds from each of the primary screens was established (FIG. 1).
The transcription assay was conducted by transfecting 10 cm plates of HEK293 cells with plasmids encoding MMTV-luciferase, SV40-renilla luciferase, and native AR. […] FRET is fluorescence resonance energy transfer between cyan and yellow fluorescent protein derivatives (CFP, YFP) that are fused to the amino and carboxyl termini of the human androgen receptor. When ligand activates the receptor, a conformational change takes place that brings the CFP and YFP into close proximity, thereby allowing FRET to occur. This spectroscopic change is detected using a fluorescence plate reader.
For the transcription assay, transfected cells were pooled before being plated into 96-well dishes with the test compounds at 10 μM. […] Cell and compound transfers were accomplished with a liquid handling robot. Cells were cultured for 24 hours in the presence of 10 nM DHT and the test compounds. After 24 hours, cells were either lysed by freeze-thaw (transcription assay), or fixed in 4% paraformaldehyde for reading on the FPR (FRET assays). Each compound was tested in duplicate in the initial screen.
The compounds were sorted on the basis of anti-androgen effects. […] This eliminated situations in which one test gave a strong response, and the replicate had none. […] For the FRET assays, toxic compounds were easily detected because of their effect on raw CFP and YFP signal, and compounds that reduced this signal below two standard deviations were eliminated.
The top 50 compounds identified in each primary assay were then tested in the other two assays.

AR = biological target: T2, AR (Homo sapiens, UniProt P10275, T878A); test: DHT titration against inhibitor, PSA-luciferase reporter in LNCaP cells (competitive vs non-competitive); assay type: cell-based; conditions: moderate dose of inhibitor, DHT titrated
T2 construct: that each express endogenous AR; endogenous in cells; host or cells: LNCaP

HEK293 cells = test: Cell proliferation (DNA content, DAPI) in control HEK293 cells; assay type: cell-based; conditions: PP 100 nM, HH 100 nM, BiC 1 μM
Text: LN-AR cells were created by retroviral infection of a high-expressing AR vector into LNCaP cells, and proliferate independent of androgen in cell culture, unlike their parental line (Chen, C. D., et al., Molecular determinants of resistance to antiandrogen therapy. Nat Med, 2004. 10(1): p. 33-9). HEK293 cells were used as a control. Cells were transferred to charcoal-stripped media two days before they were split and plated in quadruplicate at a density of approximately 20,000 cells/well in 48-well plates. […] Media were changed every day, using a single preparation to ensure consistent compound concentrations. Proliferation was determined by measuring the DNA content of the cells in each well. Each day, the cells in four wells were fixed in 100% cold methanol, followed by staining for 5 min at RT with 0.2 ng/mL 4′,6-diamidino-2-phenylindole (DAPI) in PBS. The cells were washed once in PBS, then read on a fluorescence plate reader using 365/439 excitation/emission wavelengths. LAPC4 and LNCaP cells proliferated to a much greater degree in the presence of DHT, while LN-AR cells proliferated in the presence and absence of DHT.

prostate [2] = test: Prostate wet weight in FVB male mice after 5 weeks of treatment; assay type: in vivo
dorsal prostate = test: Histology of mouse dorsal prostate after 5 weeks of treatment; assay type: in vivo; conditions: FVB male mice, THP or BiC alone, or combination
[3] = system: androgen-regulated genes in the prostate; test: Quantitative PCR of androgen-regulated genes in mouse prostate, normalized to RPL19; assay type: in vivo; conditions: mice
Procedure: A cohort of mice were castrated as a positive control.
For quantitative PCR, RNA was isolated from mouse prostates and reverse-transcribed. The expression of several androgen-regulated genes, of which a subset is shown (FIG. 13), was determined by using QPCR and normalizing to the expression of the housekeeping gene RPL19.

native androgen receptor = biological target: T3, native androgen receptor (Homo sapiens, UniProt P10275); test: PSA-luciferase reporter with CMV-renilla control in LAPC4 cells (THP); assay type: cell-based; conditions: LAPC4, DHT and increasing amounts of compound
T3 construct: that each express endogenous AR; endogenous in cells; host or cells: LAPC4
T3 sequence (P10275 1-920): T1 sequence (P10275 1-920)
Text: LAPC4 cells, a prostate cancer cell line that expresses native androgen receptor, were transfected with a PSA-luciferase reporter, and a CMV-renilla luciferase control.

[4] = biological target: T4, AR with a mutation (T877A) (Homo sapiens, UniProt P10275, T878A); test: PSA-luciferase reporter transcription assay in LNCaP cells; assay type: cell-based; conditions: 3 nM DHT
T4 construct: that each express endogenous AR; endogenous in cells; host or cells: LNCaP
T4 sequence (P10275 1-920 T878A): T1 sequence (P10275 1-920) with T878A
Procedure: Cells were transfected with two reporter plasmids, a PSA-luciferase construct (androgen responsive), and an SV40-renilla luciferase construct as an internal control. The following day, the cells were split and drugs added in the presence of 3 nM DHT. Luciferase production was measured the following day (Dual luciferase assay kit, Promega).
Synergism can be defined as a combination index of less than one, using the non-exclusive assumption described by Chou et al. (Chou, T. C. and P. Talalay, Quantitative analysis of dose-effect relationships: the combined effects of multiple drugs or enzyme inhibitors. Adv Enzyme Regul, 1984. 22: p. 27-55).

T2 sequence (P10275 whole entry T878A): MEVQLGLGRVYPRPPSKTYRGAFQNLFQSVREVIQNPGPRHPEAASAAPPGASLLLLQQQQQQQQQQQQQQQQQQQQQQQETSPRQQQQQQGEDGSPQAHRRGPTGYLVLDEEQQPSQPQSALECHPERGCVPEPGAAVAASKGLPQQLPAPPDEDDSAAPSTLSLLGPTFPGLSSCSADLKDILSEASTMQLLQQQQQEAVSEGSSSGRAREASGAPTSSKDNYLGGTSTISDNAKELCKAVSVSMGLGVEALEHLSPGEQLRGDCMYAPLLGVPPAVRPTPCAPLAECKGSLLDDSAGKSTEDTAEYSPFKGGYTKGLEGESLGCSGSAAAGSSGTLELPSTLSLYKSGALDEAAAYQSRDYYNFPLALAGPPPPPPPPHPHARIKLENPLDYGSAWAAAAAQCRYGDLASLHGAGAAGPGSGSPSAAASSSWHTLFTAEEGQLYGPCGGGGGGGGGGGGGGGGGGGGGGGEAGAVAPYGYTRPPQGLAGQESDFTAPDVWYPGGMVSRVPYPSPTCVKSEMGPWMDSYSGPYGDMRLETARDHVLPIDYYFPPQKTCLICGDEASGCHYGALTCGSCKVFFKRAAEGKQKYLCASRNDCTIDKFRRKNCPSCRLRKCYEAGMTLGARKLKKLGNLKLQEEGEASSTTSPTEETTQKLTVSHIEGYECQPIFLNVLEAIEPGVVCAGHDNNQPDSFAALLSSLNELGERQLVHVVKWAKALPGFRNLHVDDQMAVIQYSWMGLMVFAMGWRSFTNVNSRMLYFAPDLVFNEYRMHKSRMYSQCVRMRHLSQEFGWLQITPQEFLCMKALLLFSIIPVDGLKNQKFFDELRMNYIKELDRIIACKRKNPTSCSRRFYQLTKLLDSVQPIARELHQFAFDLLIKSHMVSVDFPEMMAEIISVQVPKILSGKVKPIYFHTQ

Compound: CC(O)(CS(=O)(=O)c1ccc(F)cc1)C(=O)Nc1ccc(C#N)c(C(F)(F)F)c1 (stereo not shown) [BiC, bicalutamide]
Reduction of prostate weight (prostate [1]): 35%

Compound: O=c1ccc2cc(O[C@@H]3O[C@H](CO)[C@@H](O)[C@H](O)[C@H]3O)c(O)cc2o1 [Esculin]
Anti-androgen activity in screen (human androgen receptor): previously unrecognized anti-androgen activity

Anti-androgen activity in screen (human androgen receptor): top hits
Compound: CC(C)(O)C(=O)Nc1ccc([N+](=O)[O-])c(C(F)(F)F)c1 [OH—F, hydroxy-flutamide, reference compound]
Mode of antagonism on DHT titration (AR): DHT overcame the inhibitory effect; also recorded: consistent with a competitive antagonist

Compound: Cc1cc(/C=C/c2ccc3cc(N(C)C)ccc3[n+]2C)c(C)n1-c1ccccc1 [PP, 6-Dimethylamino-2-[2-(2,5-dimethyl-1-phenyl-1H-pyrrol-3-yl)-vinyl]-1-methyl-quinolinium, pamoate salt, reference compound]
Non-specific growth inhibition (HEK293 cells): Neither compound exhibited non-specific growth inhibition

Compound: COc1cc2ccc(=O)oc2cc1O [Scopoletin]
Anti-androgen activity in screen (human androgen receptor): previously unrecognized anti-androgen activity

Compound: Cc1cc(/C=C/C2CCc3cc(N(C)C)ccc3N2C)c(C)n1-c1ccccc1 (stereo not shown) [THP, {2-[2-(2,5-Dimethyl-1-phenyl-1H-pyrrol-3-yl)-vinyl]-1-methyl-1,2,3,4-tetrahydro-quinolin-6-yl}-dimethyl-amine]
Appearance of the prostate (prostate [2]; 20 mg/kg THP, 5 weeks): abnormal milky appearance of the prostate
Change in prostate wet weight (prostate [2]; 5 weeks daily M-F, 1 mg/kg PP, 100 mg/kg BiC, 20 mg/kg THP, or 2 mg/kg THP + 100 mg/kg BiC): did not reduce overall wet weight
Atrophy of the dorsal prostate by histological examination (dorsal prostate): modest atrophy
Expression of androgen-regulated genes in the prostate (QPCR) ([3]; 2 mg/kg THP): modest effects
Expression of androgen-regulated genes in the prostate (QPCR) ([3]; 20 mg/kg THP): significantly decreased the transcription of many androgen regulated genes
Inhibition of androgen receptor-mediated transcription (normalized luciferase activity) (native androgen receptor): strong inhibition of androgen receptor-mediated transcription

Compound: Harman
IC50 [4]: 380 nM
